Assay results taken from patent US8835458B2 (Hanmi Science Co., Ltd, priority 2010, dated 2014).
Where a name gives a salt, the structure may show the parent alone. Read-outs that look alike come from different tables or passages of the source.

Columns and labels:
[1] = system: MDA-MB-231 breast cancer cell lines; assay: Evaluation of inhibition on cell growth (MTS); type: cell-based; conditions: Homo sapiens, MDA-MB-231, 120 hours
In short: (§1)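 Cells seeded at 3,000˜5,000 cells/100 μL, grown 24 h at 37° C (MDA-MB-231 under atmospheric conditions), then exposed to 10 μM˜0.1 nM compound. MDA-MB-231 cultured 120 h, read by MTS at 490 nm; fibroblasts cultured 72 h, TCA-fixed, SRB-stained, read at 540 nm. GI50 from growth relative to untreated and medium-only cells.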

[2] = Toxicity to normal cells (SRB); type: cell-based, mouse; conditions: mouse, Balb/c3t3 fibroblasts (normal cell line), read-out: BalB/C (GI50)
Description: MDA-MB-231 breast cancer cell lines (ATCC #HTB-26) and BxPC-3 pancreas cancer cell lines (ATCC #CRL 1687), which have been reported to express XIAP, were obtained from ATCC (American type culture collection; Rockville, Md.). MDA-MB-231 cell lines were incubated in L-15 medium supplemented with 10% FBS and 1% penicillin/streptomycin (Gibco BRL) at a T-75 cm^2 growth flask. In addition, BxPC-3 cell lines were incubated in RPMI medium supplemented with 10% FBS and 1% penicillin/streptomycin. For experiments of toxicity to normal cells, fibroblasts Hs27 (ATCC #CRL 1634) and Balb/c3t3 (ATCC #CCL 163) were used. The various cell lines were transferred into 96-well plates at a density of 3,000˜5,000 cells/100 μL, and cultured for 24 hours under conditions of 37° C., 5% CO2, 95% air, and 100% relative humidity (MDA-MB-231 cells were cultured under atmospheric conditions). The cells were treated with 10 μM˜0.1 nM of test compounds, and MDA-MB-231, BxPC-3, and normal cell lines were cultured for 120, 96, and 72 hours, respectively.
Cell viabilities of MDA-MB-231 cell lines were measured at an absorbance of 490 nm using CellTiter 96™ AQueous One Solution Cell proliferation Assay (MTS, Promega), and cell viabilities of BxPC-3 and normal cell lines were measured by fixing cells with 10% TCA (trichloroacetic acid), staining with SRB (sulforhodamine B), and measuring at 540 nm. From the values, GI50 values in which test compounds reduce the growth of cancer cells by 50% were calculated. The growth rates of cancer cells were calculated from following Equation 1 or 2. [(Ti−Tz)/(C−Tz)]×100 (for Ti>=Tz) [Equation 1] [(Ti−Tz)/Tz]×100 (for Ti<Tz) [Equation 2] In Equations 1 and 2, Tz refers to a density of untreated cells, which is an absorbance in 0% cell growth groups. C refers to a density of cells cultured by adding only medium, and Ti refers to a density of cells treated with test compounds.
GI50 value is the concentration of a test compound when the value of Equation 1 is 50, which indicates the concentration of test compound required to inhibit the cancer cells by 50%. On each measurement, test compounds were compared with a control.
The activity value of each compound (GI50 value) was shown in Table 5, and an IAP antagonist was used as a control.
In the activity measurement on MDA-MB-231 breast cancer cell lines, the values were represented as “***” for 100 nM or less, “**” for over 100 nM to below 1,000 nM, and “*” for 1,000 nM or more. In the measurement on normal cell lines, Balb/C and Hs27, the values were represented as “+++” for 10,000 nM or more, “++” for over 5,000 nM to below 10,000 nM, and “+” for 5,000 nM or less.

[3] = Toxicity to normal cells (SRB); type: cell-based, human; conditions: human, Hs27 fibroblasts (normal cell line)
In short: as §1

| Compound | GI50 [1] [µM] | GI50 at 72 h [2] [µM] | GI50 at 72 h [3] [µM] |
| --- | --- | --- | --- |
| CN[C@@H](C)C(=O)N[C@H](C(=O)N1CCC[C@H]1C(=O)Nc1cc2c(Nc3ccc(F)cc3F)ncnc2cc1OC)C(C)(C)C [Example 28, (S)—N-(4-(2,4-difluorophenylamino)-7-methoxyquinazolin-6-yl)-1-((S)-3,3-dimethyl-2-((S)-2-(methylamino)propanamido)butanoyl)pyrrolidine-2-carboxamide hydrochloride] | ≤ 0.1 | > 10 | > 10 |
| CN[C@@H](C)C(=O)N[C@H](C(=O)N1CCC[C@H]1C(=O)Nc1cc2c(Nc3ccc(Cl)cc3F)ncnc2cc1OC)C(C)(C)C [Example 29, (S)—N-(4-(4-chloro-2-fluorophenylamino)-7-methoxyquinazolin-6-yl)-1-((S)-3,3-dimethyl-2-((S)-2-(methylamino)propanamido)butanoyl)pyrrolidine-2-carboxamide hydrochloride] | ≤ 0.1 | > 10 | > 10 |
| CN[C@@H](C)C(=O)N[C@H](C(=O)N1CCC[C@H]1C(=O)Nc1cc2c(N(C)c3ccccc3)ncnc2cc1OC)C(C)(C)C [Example 31, (S)-1-((S)-3,3-dimethyl-2-((S)-2-(methylamino)propanamido)butanoyl)-N-(7-methoxy-4-(methyl(phenyl)amino)quinazolin-6-yl)pyrrolidine-2-carboxamide hydrochloride] | ≤ 0.1 | > 10 | > 10 |
| CN[C@@H](C)C(=O)N[C@H](C(=O)N1CCC[C@H]1C(=O)Nc1cc2c(Nc3ccccn3)ncnc2cc1OC)C(C)(C)C [Example 33, (S)-1-((S)-3,3-dimethyl-2-((S)-2-(methylamino)propanamido)butanoyl)-N-(7-methoxy-4-(pyridin-2-ylamino)quinazolin-6-yl)pyrrolidine-2-carboxamide] | ≤ 0.1 | > 10 | > 10 |
| CN[C@@H](C)C(=O)N[C@H](C(=O)N1CCC[C@H]1C(=O)Nc1cc2c(NCc3ccc(F)cc3F)ncnc2cc1OC)C(C)(C)C [Example 35, (S)—N-(4-(2,4-difluorobenzylamino)-7-methoxyquinazolin-6-yl)-1-((S)-3,3-dimethyl-2-((S)-2-(methylamino)propanamido)butanoyl)pyrrolidine-2-carboxamide hydrochloride] | ≤ 0.1 | > 10 | > 10 |
| CN[C@@H](C)C(=O)N[C@H](C(=O)N1CCC[C@H]1C(=O)Nc1cc2c(N)ncnc2cc1OC)C(C)(C)C [Example 36, (S)—N-(4-amino-7-methoxyquinazolin-6-yl)-1-((S)-3,3-dimethyl-2-((S)-2-(methylamino)propanamido)butanoyl)pyrrolidine-2-carboxamide] | 0.1 to 1 | > 10 | > 10 |
| CN[C@@H](C)C(=O)N[C@H](C(=O)N1CCC[C@H]1C(=O)Nc1cc2c(Nc3ccc(OCc4cccc(F)c4)c(Cl)c3)ncnc2cc1OC)C(C)(C)C [Example 37, (S)—N-(4-(3-chloro-4-(3-fluorobenzyloxy)phenylamino)-7-methoxyquinazolin-6-yl)-1-((S)-3,3-dimethyl-2-((S)-2-(methylamino)propanamido)butanoyl)pyrrolidine-2-carboxamide hydrochloride] | ≤ 0.1 | > 10 | > 10 |
| CN[C@@H](C)C(=O)N[C@H](C(=O)N1CCC[C@H]1C(=O)Nc1cc2c(NC3CCCCC3)ncnc2cc1OC)C(C)(C)C [Example 38, (S)—N-(4-(cyclohexylamino)-7-methoxyquinazolin-6-yl)-1-((S)-3,3-dimethyl-2-((S)-2-(methylamino)propanamido)butanoyl)pyrrolidine-2-carboxamide hydrochloride] | ≤ 0.1 | > 10 | > 10 |
| CN[C@@H](C)C(=O)N[C@H](C(=O)N1CCC[C@H]1C(=O)Nc1cc2c(Nc3ccc(F)c(Cl)c3)ncnc2cc1OC)C(C)(C)C [Example 41, (S)—N-(4-(3-chloro-4-fluorophenylamino)-7-methoxyquinazolin-6-yl)-1-((S)-3,3-dimethyl-2-((S)-2-(methylamino)propanamido)butanoyl)pyrrolidine-2-carboxamide hydrochloride] | ≤ 0.1 | > 10 | > 10 |

Second part, led by results:

| GI50 [1] [µM] | Compound | GI50 at 72 h [2] [µM] | GI50 at 72 h [3] [µM] |
| --- | --- | --- | --- |
| ≤ 0.1 | CN[C@@H](C)C(=O)N[C@H](C(=O)N1CCC[C@H]1C(=O)Nc1cc2c(Nc3ccccc3C)ncnc2cc1OC)C(C)(C)C [Example 27, (S)—N-(4-(o-toluidino)-7-methoxyquinazolin-6-yl)-1-((S)-3,3-dimethyl-2-((S)-2-(methylamino)propanamido)butanoyl)pyrrolidine-2-carboxamide hydrochloride] | > 10 | > 10 |
| ≤ 0.1 | CN[C@@H](C)C(=O)N[C@H](C(=O)N1CCC[C@H]1C(=O)Nc1cc2c(Nc3ccccc3OC)ncnc2cc1OC)C(C)(C)C [Example 30, (S)—N-(4-(2-methoxyphenylamino)-7-methoxyquinazolin-6-yl)-1-((S)-3,3-dimethyl-2-((S)-2-(methylamino)propanamido)butanoyl)pyrrolidine-2-carboxamide hydrochloride] | > 10 | > 10 |
| ≤ 0.1 | CN[C@@H](C)C(=O)N[C@H](C(=O)N1CCC[C@H]1C(=O)Nc1cc2c(Nc3ccc4ccccc4c3)ncnc2cc1OC)C(C)(C)C [Example 32, (S)-1-((S)-3,3-dimethyl-2-((S)-2-(methylamino)propanamido)butanoyl)-N-(7-methoxy-4-(naphthalen-2-ylamino)quinazolin-6-yl)pyrrolidine-2-carboxamide] | > 10 | > 10 |
| ≤ 0.1 | CN[C@@H](C)C(=O)N[C@H](C(=O)N1CCC[C@H]1C(=O)Nc1cc2c(N[C@@H](C)c3ccccc3)ncnc2cc1OC)C(C)(C)C [Example 34, (S)-1-((S)-3,3-dimethyl-2-((S)-2-(methylamino)propanamido)butanoyl)-N-(7-methoxy-4-((S)-1-phenylmethylamino)quinazolin-6-yl)pyrrolidine-2-carboxamide hydrochloride] | > 10 | > 10 |
| ≤ 0.1 | CN[C@@H](C)C(=O)N[C@H](C(=O)N1CCC[C@H]1C(=O)Nc1cc2c(Nc3ccc(-c4ccccc4)cc3)ncnc2cc1OC)C(C)(C)C [Example 39, (S)—N-(4-(biphenyl-4-ylamino)-7-methoxyquinazolin-6-yl)-1-((S)-3,3-dimethyl-2-((S)-2-(methylamino)propanamido)butanoyl)pyrrolidine-2-carboxamide hydrochloride] | > 10 | > 10 |
| ≤ 0.1 | CN[C@@H](C)C(=O)N[C@H](C(=O)N1CCC[C@H]1C(=O)Nc1cc2c(Nc3ccc(Oc4ccccc4)cc3)ncnc2cc1OC)C(C)(C)C [Example 40, (S)-1-((S)-3,3-dimethyl-2-((S)-2-(methylamino)propanamido)butanoyl)-N-(7-methoxy-4-(4-phenoxyphenylamino)quinazolin-6-yl)pyrrolidine-2-carboxamide hydrochloride] | > 10 | > 10 |
